What was measured:
[1] = biological target: T1, humanized mouse PDE4D7 dimer S129D(PKA), Y271F(UCR2) (Mus musculus, UniProt Q01063, S129D/Y271F); experiment: biochemical; format: biochemical
T1 construct: hexahistidine; Proteos Inc; host or cells: Baculovirus-infected Sf9 insect cells
T1 sequence (Q01063 1-747 S129D/Y271F): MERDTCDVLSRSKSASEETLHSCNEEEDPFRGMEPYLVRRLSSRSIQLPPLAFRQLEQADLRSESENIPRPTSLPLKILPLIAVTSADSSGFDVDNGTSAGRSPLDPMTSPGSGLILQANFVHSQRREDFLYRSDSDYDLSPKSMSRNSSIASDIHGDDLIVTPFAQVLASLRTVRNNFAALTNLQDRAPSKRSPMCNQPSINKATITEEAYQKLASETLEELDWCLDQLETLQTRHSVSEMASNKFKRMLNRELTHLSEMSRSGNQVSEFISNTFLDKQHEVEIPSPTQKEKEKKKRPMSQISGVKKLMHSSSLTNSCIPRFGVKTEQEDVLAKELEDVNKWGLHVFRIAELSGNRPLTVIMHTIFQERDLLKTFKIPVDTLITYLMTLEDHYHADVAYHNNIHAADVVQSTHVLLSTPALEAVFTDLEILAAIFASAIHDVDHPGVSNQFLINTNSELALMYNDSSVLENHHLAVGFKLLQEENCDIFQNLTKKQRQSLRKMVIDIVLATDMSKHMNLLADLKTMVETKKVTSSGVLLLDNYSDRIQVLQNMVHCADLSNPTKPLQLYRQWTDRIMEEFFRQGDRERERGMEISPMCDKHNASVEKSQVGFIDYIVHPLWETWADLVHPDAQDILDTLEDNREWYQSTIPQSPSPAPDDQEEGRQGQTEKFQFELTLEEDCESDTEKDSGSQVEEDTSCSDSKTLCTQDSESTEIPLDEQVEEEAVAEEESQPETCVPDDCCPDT
Method: Kinetic assay of cAMP hydrolysis by purified PDE4 enzymes is measured by coupling the formation of the PDE4 reaction product 5′-adenosine monophosphate (AMP) to the oxidation of reduced nicotinamide adenine dinucleotide (NADH). This is accomplished with three coupling enzymes (yeast myokinase, pyruvate kinase, and lactate dehydrogenase), and allows fluorescent determination of reaction rates [19]. To measure inhibition of PDE4 enzymes by test compounds, data were percent normalized relative to controls and are presented as percent inhibition.
Kinetic assay of cAMP hydrolysis by purified PDE4 enzymes is measured by coupling the formation of the PDE4 reaction product 5′-adenosine monophosphate (AMP) to the oxidation of reduced nicotinamide adenine dinucleotide (NADH). This is accomplished with three coupling enzymes (yeast myokinase, pyruvate kinase, and lactate dehydrogenase), and allows fluorescent determination of reaction rates.^19 Assays were performed in 96-well plates in a total volume of 200 μl/well. Compounds were dissolved in dimethylsulfoxide (DMSO) and added to plates in a volume of 10 μl followed by addition of 165 μl of assay mix. Plates were pre-incubated at 25 °C for 10 min. The enzyme reaction was initiated by the addition of 25 μl of cAMP followed by thorough mixing. […] Initial rates (slopes) were determined from linear portions of the progress curves. […]

[2] = system: brain cAMP, humanized PDE4D mice; experiment: Brain cAMP ELISA after oral dosing; format: in vivo, mouse
Method: (§1) On the day of assay, frozen brain samples were analyzed using the cAMP complete ELISA kit (Enzo Life Sciences, Farmingdale, NY) according to the assay protocol.
(§2) Concentrations of cAMP in mouse brain samples were measured using an enzyme-linked immunosorbent assay (ELISA). The mice were treated with various doses of BPN-14770 or vehicle. 1 h after dosing, mice were killed by rapid decapitation, and brains were immediately were dissected on ice, flash frozen in liquid nitrogen, and stored at -80 ̊C. On the day of assay, brain samples (one hemisphere) were ground to a fine powder under liquid nitrogen in a stainless steel mortar, followed by addition of 10 volumes of 0.1 M HCl. Tissue homogenates were then centrifuged at 800ˣg for 15 min. Supernatants were collected for immediate assay or stored frozen for assay later using the cAMP complete ELISA kit (Enzo Life Sciences, Farmingdale, NY) according to the assay protocol ^66.

[3] = system: brain cAMP, wild-type mice; experiment: Brain cAMP ELISA after oral dosing; format: in vivo, mouse
Method: as §1, §2

[4] = system: pCREB, BDNF, pSynapsin, PSD95 in humanized PDE4D mice; experiment: Immunoblot of hippocampal plasticity-related proteins; format: in vivo, mouse
Method: Hippocampal tissues were treated with lysis buffer for protein extraction. Then, 10–30 μg protein was separated using gel electrophoresis and transferred to polyvinylidene difluoride membranes, blocked with blocking buffer, and incubated with primary antibodies overnight at 4 °C. Labeled protein bands were detected using the enhanced chemiluminescence method and quantified using Quantity One 1-D Analysis Software.
Hippocampal tissues were lysed with RIPA buffer containing protease and phosphatase inhibitors and centrifuged at 13,000 rpm for 30 min at 4 °C. Aliquots of supernatant containing 10-30 μg protein were separated using 10% SDS-PAGE as described previously^66. Proteins from the gels were transferred to polyvinylidene difluoride membranes, blocked with blocking buffer (phosphate buffered saline containing 3% BSA and 0.1% sodium azide), and incubated with primary antibodies overnight at 4°C (phospho-CREB at Ser 133 (# ab32096, diluted 1:1000, abcam, Cambridge, MA), CREB (# sc-186, diluted 1:200, Santa Cruz Biotechnology, Dallas, Texas), β -actin (Catalog # ab8227, diluted 1:2000, abcam, Cambridge, MA)), Synapsin (#2312, diluted 1:1000, Cell Signaling Technology), Phospho-synapsin (#2311, diluted […], Cell Signaling Technology ), and PSD-95 (#2507, diluted 1:1000, Cell Signaling Technology, Danvers, MA). Labeled protein bands were detected using the enhanced chemiluminescence (ECL) method and quantified using Quantity One 1-D Analysis Software.

[5] = repeated oral dosing 14 days, hPDE4D mice

## O=C(O)Cc1ccc(Cc2cc(-c3cccc(Cl)c3)nc(C(F)(F)F)c2)cc1 [BPN14770]
[1]; Y271F versus wild-type mouse PDE4D7
  increase in potency by mutation of mouse UCR2 tyrosine 271 to phenylalanine: 46 fold
[1]; mouse PDE4D7 dimer, S129D, Y271F (humanized UCR2)
  IC50: 2.9 ± 0.3 nM
[2]; humanized PDE4D mice, 0.3 mg/kg PO
  increase in brain cAMP: almost three-fold
[2]; humanized mice, 1 h after oral dose
  minimum effective dose (MED) for increase in brain cAMP: 0.1 mg/kg PO
[3]; 0.3 mg/kg PO
  effect on brain cAMP: ineffective
[3]; 1 h after oral dose
  minimum effective dose (MED) for increase in brain cAMP: 1 mg/kg PO
[4]; 1 h after dosing, data not shown
  hippocampal CREB phosphorylation or BDNF expression after single acute dose: no change
[4]; hPDE4D mice, repeated dosing, data not shown
  synapsin phosphorylation in prefrontal cortex and cortex: increased phosphorylation of synapsin was also observed
[4]; repeated dosing, 0.03 mg/kg
  increase in hippocampal PSD95: 1.4 fold
  increase in hippocampal phosphorylation of synapsin: 1.5 fold
[4]; [5]
  elevation of hippocampal BDNF: 2.1 fold
  elevation of hippocampal CREB phosphorylation: 2.3 fold

From publication PMC6135860 (Neuropsychopharmacology, 2018)
